Each structure is given as a SMILES string.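 Where inhibition never reached the appropriate level, the endpoint shown equals the highest concentration tested. Otherwise, values were interpolated linearly from a five-concentration, 48-hour dose response in 96-well plates. GI50: concentration for 50% inhibition of growth. Definition used: TGI = concentration required for complete inhibition of growth.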

Some test systems named below: SK-OV-3 ovarian; HCT-15 colon; RPMI-8226 leukemia; SK-MEL-2 melanoma; UACC-62 melanoma; DU-145 prostate; HT29 colon; NCI-H23 lung; OVCAR-3 ovarian; RXF 393 renal.
Holding throughout (assay): NCI tumour cell line growth inhibition, 48 h

As to `Cc1cc2cc3cc(C)c(N(C)C)cc3[n+](C)c2cc1N(C)C`, the GI50 with SK-OV-3 ovarian was 5.05 µM; with HCT-15 colon it was 4.52 µM; in the experiment with RPMI-8226 leukemia it was 4.54 µM; in the experiment on SK-MEL-2 melanoma, 4.57 µM; with UACC-62 melanoma, 4.91 µM; in the experiment with DU-145 prostate, 4.87 µM. For the same compound, the GI50 is 2.46 µM with HT29 colon, 2.77 µM in the experiment on NCI-H23 lung, 3.13 µM in the experiment on OVCAR-3 ovarian and 6.09 µM in the experiment with RXF 393 renal. In addition, the TGI in the experiment on SK-OV-3 ovarian is above 100 µM; in the experiment on HCT-15 colon, 72.8 µM; in the experiment with RPMI-8226 leukemia it was above 100 µM; with SK-MEL-2 melanoma, above 100 µM; in the experiment on UACC-62 melanoma, 23.6 µM; with DU-145 prostate it was 31.9 µM. The TGI in the experiment with HT29 colon was above 100 µM; with NCI-H23 lung, 31.2 µM; in the experiment on OVCAR-3 ovarian, 14 µM; with RXF 393 renal, 23.4 µM.
As to `CC/C(=C(/c1ccc(OCCN(C)C)cc1)c1ccc(OC(=O)CCC(=O)c2c(C)[nH]c(/C=C3\N=C(c4ccc[nH]4)C=C3OC)c2C)cc1)c1ccccc1`, the GI50 with SK-OV-3 ovarian is 6.99 µM; in the experiment on HCT-15 colon, 0.934 µM; in the experiment on RPMI-8226 leukemia, 1.57 µM; in the experiment with SK-MEL-2 melanoma, 2.42 µM; in the experiment on UACC-62 melanoma it was 1.81 µM; in the experiment with DU-145 prostate, 3.27 µM. Also, the GI50 in the experiment with HT29 colon was 0.438 µM; in the experiment on NCI-H23 lung, 4.02 µM; in the experiment on OVCAR-3 ovarian, 2.08 µM; in the experiment on RXF 393 renal it was 2.34 µM. The TGI with SK-OV-3 ovarian worked out at 29.6 µM; in the experiment on HCT-15 colon it was 4.48 µM; in the experiment on RPMI-8226 leukemia it was 5.58 µM; in the experiment with SK-MEL-2 melanoma, 6.2 µM; in the experiment on UACC-62 melanoma it was 3.78 µM; with DU-145 prostate it was 16.8 µM. For the same compound, the TGI in the experiment with HT29 colon was found to be 11.1 µM; with NCI-H23 lung, 18.7 µM; with OVCAR-3 ovarian, 10.3 µM; in the experiment on RXF 393 renal, 12.6 µM.
With `O=S(=O)(Cc1ccc(Cl)cc1Cl)c1ccc(Cl)cc1`, the GI50 in the experiment on SK-OV-3 ovarian is 1.47 µM; in the experiment on HCT-15 colon it was 0.419 µM; in the experiment with RPMI-8226 leukemia it was 1.14 µM; in the experiment with SK-MEL-2 melanoma, 0.326 µM; in the experiment with UACC-62 melanoma, 0.502 µM; in the experiment on DU-145 prostate, 1.74 µM. Further, the GI50 in the experiment on HT29 colon was 0.338 µM; in the experiment with NCI-H23 lung it was 0.878 µM; with OVCAR-3 ovarian, 0.346 µM; in the experiment with RXF 393 renal, 1.4 µM. The TGI with SK-OV-3 ovarian is above 57.7 µM; in the experiment on HCT-15 colon it was above 100 µM; with RPMI-8226 leukemia it was above 69.7 µM; in the experiment with UACC-62 melanoma, above 100 µM; in the experiment on DU-145 prostate, 16.1 µM; with HT29 colon, 3.84 µM. The TGI in the experiment with NCI-H23 lung is above 100 µM; in the experiment with OVCAR-3 ovarian, 1.8 µM; in the experiment with RXF 393 renal, 7.55 µM.
Regarding `O=C1C2C(C(=O)[N]1[Hg][c]1cccs1)C1(Cl)C(Cl)=C(Cl)C2(Cl)C1(Cl)Cl` (centres undefined), the GI50 in the experiment on SK-OV-3 ovarian is 5.71 µM; in the experiment on HCT-15 colon it was 0.821 µM; in the experiment with RPMI-8226 leukemia, 1.41 µM; in the experiment with SK-MEL-2 melanoma it was 1.56 µM; in the experiment with UACC-62 melanoma, 1.27 µM; in the experiment with DU-145 prostate, 1.8 µM. Also, the GI50 is 0.649 µM with HT29 colon, 1.62 µM in the experiment with NCI-H23 lung, 0.283 µM in the experiment with OVCAR-3 ovarian and 1.5 µM with RXF 393 renal. The TGI is 17.9 µM with SK-OV-3 ovarian; 2.27 µM with HCT-15 colon; 6.38 µM with RPMI-8226 leukemia; 3.23 µM in the experiment on SK-MEL-2 melanoma; 2.89 µM in the experiment on UACC-62 melanoma; 4.72 µM in the experiment on DU-145 prostate. Also, the TGI in the experiment with HT29 colon was 3.57 µM; in the experiment on NCI-H23 lung, 3.14 µM; in the experiment with OVCAR-3 ovarian it was 0.904 µM; with RXF 393 renal it was 3 µM.
As for `O=c1c2c3c(sc2n2c(-c4cc(-c5ccccc5)no4)nnc2n1Cc1ccccc1)CCCC3`, the GI50 is 38.4 µM with SK-OV-3 ovarian; 11.6 µM in the experiment on HCT-15 colon; 4.23 µM in the experiment on RPMI-8226 leukemia; 4 µM in the experiment on SK-MEL-2 melanoma; 17.1 µM with UACC-62 melanoma; 19.6 µM with DU-145 prostate. Further, the GI50 is 29.2 µM in the experiment with HT29 colon, 36.6 µM with NCI-H23 lung, 8.61 µM with OVCAR-3 ovarian and 4.13 µM in the experiment on RXF 393 renal. For the same compound, the TGI in the experiment on SK-OV-3 ovarian is above 100 µM; in the experiment with HCT-15 colon it was above 83.4 µM; with RPMI-8226 leukemia, above 48.8 µM; in the experiment with SK-MEL-2 melanoma, 23.5 µM; in the experiment on UACC-62 melanoma, 44 µM; with DU-145 prostate, above 93.3 µM. Moreover, the TGI in the experiment with HT29 colon is above 100 µM; in the experiment on NCI-H23 lung, above 100 µM; with OVCAR-3 ovarian it was 30.5 µM; in the experiment on RXF 393 renal, 26.7 µM.
As to `O=c1ccc(N=Nc2ccc([N+](=O)[O-])cc2)ccc1O`, the GI50 in the experiment with SK-OV-3 ovarian was 28.4 µM; in the experiment with HCT-15 colon it was 3.89 µM; in the experiment with RPMI-8226 leukemia, 3.15 µM; in the experiment on SK-MEL-2 melanoma, 9.33 µM; in the experiment with UACC-62 melanoma, 8.45 µM; in the experiment with DU-145 prostate, 19 µM. Besides, the GI50 is 5.71 µM with HT29 colon, 6.37 µM in the experiment with NCI-H23 lung, 3.33 µM with OVCAR-3 ovarian and 7.37 µM in the experiment on RXF 393 renal. In addition, the TGI in the experiment with SK-OV-3 ovarian was above 100 µM; with HCT-15 colon, above 100 µM; in the experiment with RPMI-8226 leukemia it was above 100 µM; with SK-MEL-2 melanoma, 73.6 µM; with UACC-62 melanoma, 43.9 µM; in the experiment with DU-145 prostate, above 100 µM. The TGI with HT29 colon was above 100 µM; in the experiment on NCI-H23 lung, above 100 µM; with OVCAR-3 ovarian it was 25.8 µM; in the experiment on RXF 393 renal, above 100 µM.
In the case of `CC1=C(/C=C/C(=O)O)C(C)(C)CCC1`, the TGI in the experiment with SK-OV-3 ovarian, in the experiment on HCT-15 colon, in the experiment with RPMI-8226 leukemia, with SK-MEL-2 melanoma, in the experiment with UACC-62 melanoma and in the experiment with DU-145 prostate was above 100 µM each time. Also, the TGI with HT29 colon, in the experiment on NCI-H23 lung, with OVCAR-3 ovarian and in the experiment with RXF 393 renal was above 100 µM each time.
With `CCCCOc1ccc(NC(=O)n2nc(N)c3ccccc32)cc1`, the GI50 with SK-OV-3 ovarian is 49.2 µM; in the experiment with HCT-15 colon it was 16.9 µM; in the experiment with RPMI-8226 leukemia, 2.63 µM; with SK-MEL-2 melanoma it was 27.8 µM; with UACC-62 melanoma, 14.7 µM; with DU-145 prostate, 19.8 µM. The GI50 with HT29 colon is 9.98 µM; in the experiment on NCI-H23 lung it was 22.6 µM; in the experiment on OVCAR-3 ovarian it was 19 µM; in the experiment on RXF 393 renal, 25.8 µM. The TGI in the experiment with SK-OV-3 ovarian was above 100 µM; in the experiment with HCT-15 colon it was 70.4 µM; in the experiment with RPMI-8226 leukemia, 28.4 µM; with SK-MEL-2 melanoma it was 76 µM; in the experiment on UACC-62 melanoma, 38.3 µM; in the experiment with DU-145 prostate, 70 µM. Moreover, the TGI stood at 26 µM in the experiment with HT29 colon, 57.5 µM in the experiment on NCI-H23 lung, 42.2 µM in the experiment on OVCAR-3 ovarian and 61.2 µM in the experiment with RXF 393 renal.
With `CCOC(=O)c1sc2ncn(Cc3cccc(Br)c3)c(=O)c2c1C`, the GI50 was above 100 µM with SK-OV-3 ovarian; 62.4 µM in the experiment on HCT-15 colon; 27.6 µM with RPMI-8226 leukemia; 17.7 µM in the experiment on SK-MEL-2 melanoma; 19.5 µM in the experiment on UACC-62 melanoma; 88.8 µM in the experiment with DU-145 prostate. For the same compound, the GI50 with HT29 colon is 87.8 µM; in the experiment with NCI-H23 lung it was 66.7 µM; in the experiment on OVCAR-3 ovarian, 39.7 µM; in the experiment on RXF 393 renal, 29 µM. In addition, the TGI with SK-OV-3 ovarian is above 100 µM; in the experiment with HCT-15 colon, above 100 µM; in the experiment with RPMI-8226 leukemia, above 100 µM; in the experiment on SK-MEL-2 melanoma it was 81 µM; in the experiment with UACC-62 melanoma it was 92.3 µM; with DU-145 prostate, above 100 µM. Besides, the TGI in the experiment with HT29 colon, in the experiment on NCI-H23 lung, in the experiment with OVCAR-3 ovarian and in the experiment on RXF 393 renal was above 100 µM throughout.
In the case of `O=C1c2cccnc2C(=O)C2C3C=CC(C3)C12` (centres undefined), the TGI in the experiment on SK-OV-3 ovarian turned out to be 43.9 µM; with HCT-15 colon it was 34.8 µM; with RPMI-8226 leukemia, 8.97 µM; with SK-MEL-2 melanoma, 16.9 µM; in the experiment with UACC-62 melanoma, 9.94 µM; in the experiment with DU-145 prostate, 19.8 µM. For the same compound, the TGI was 60.9 µM in the experiment with HT29 colon, 58 µM with NCI-H23 lung, 31.8 µM in the experiment on OVCAR-3 ovarian and 10.3 µM in the experiment with RXF 393 renal.

Values taken from PubChem BioAssay (NCI).
